# Columns and labels:
# [1] = tested on: Trypanosoma brucei rhodesiense; test: Antitrypanosomal activity against bloodstream forms of Trypanosoma brucei rhodesiense STIB900 trypomastigotes after 72 hrs by alamar blue assay; type: functional; conditions: STIB900, 72 h
# [2] = Selectivity index, ratio of IC50 for rat L6 cells to IC50 for Leishmania donovani MHOM/SD/62/ISCL2D axenic amastigotes; type: toxicity; conditions: read-out: Ratio IC50
# Trypanosoma cruzi = test: Antitrypanosomal activity against Trypanosoma cruzi Tulahuen strain C2C4 amastigote forms harboring LacZ infected in rat L6 cells after 96 hrs by CPRG/Nonidet reagent based photometric method; type: functional, cell-based; conditions: Tulahuen strain C2C4, L6, 96 h
# Leishmania donovani = test: Antileishmanial activity against Leishmania donovani MHOM/SD/62/ISCL2D axenic amastigotes after 72 hrs by alamar blue assay; type: functional
# [3] = Selectivity index, ratio of IC50 for rat L6 cells to IC50 for Trypanosoma cruzi Tulahuen strain C2C4 amastigote forms harboring LacZ infected in rat L6 cells; type: toxicity, cell-based; conditions: read-out: Ratio IC50
# [4] = Selectivity index, ratio of IC50 for rat L6 cells to IC50 for bloodstream forms of Trypanosoma brucei rhodesiense STIB900 trypomastigotes; type: toxicity; conditions: read-out: Ratio IC50
# L6 = test: Cytotoxicity against rat L6 cells assessed as growth inhibition after 72 hrs by alamar blue assay; type: cell-based; conditions: L6, 72 h
# Plasmodium falciparum = test: Antiplasmodial activity against chloroquine resistant Plasmodium falciparum K1 erythrocytic stage assessed as reduction in [3H]hypoxanthine incorporation after 48 hrs by liquid scintillation counting assay; type: functional
# [5] = Selectivity index, ratio of IC50 for rat L6 cells to IC50 for chloroquine resistant Plasmodium falciparum K1 erythrocytic stage; type: toxicity; conditions: read-out: Ratio IC50
smiles,measurement,setting,value
CSC[C@H]1O[C@@H](n2cnc3c(N)nc(I)nc32)[C@H](O)[C@@H]1O,IC50,[1],5 µM
same,selectivity ratio,[2],1
same,IC50,Trypanosoma cruzi,88 µM
same,IC50,Leishmania donovani,132 µM
same,selectivity ratio,[3],2
same,selectivity ratio,[4],27
C[C@H]1O[C@@H](n2cnc3c(N)nc(Cl)nc32)[C@H](O)[C@@H]1O,IC50,[1],84 µM
same,selectivity ratio,[2],3
same,IC50,Trypanosoma cruzi,189 µM
same,IC50,Leishmania donovani,49 µM
same,selectivity ratio,[3],0.8
same,selectivity ratio,[4],2
CNc1ncnc2c1ncn2[C@@H]1O[C@H](C)[C@@H](O)[C@H]1O,IC50,[1],206 µM
same,selectivity ratio,[2],< 0.7
same,IC50,Trypanosoma cruzi,195 µM
same,IC50,Leishmania donovani,> 380 µM
same,selectivity ratio,[3],1
same,selectivity ratio,[4],1
CNc1nc(C#N)nc2c1ncn2[C@@H]1O[C@H](C)[C@@H](O)[C@H]1O,IC50,[1],111 µM
same,selectivity ratio,[2],0.6
same,IC50,Trypanosoma cruzi,45 µM
same,IC50,Leishmania donovani,148 µM
same,selectivity ratio,[3],2
same,selectivity ratio,[4],0.8
C[C@H]1O[C@@H](n2cnc3c(N)nc(NN)nc32)[C@H](O)[C@@H]1O,IC50,[1],132 µM
same,selectivity ratio,[2],3
same,IC50,Trypanosoma cruzi,147 µM
same,IC50,Leishmania donovani,73 µM
same,selectivity ratio,[3],1
same,selectivity ratio,[4],1
C[C@H]1O[C@@H](n2cnc3c(N)nc(F)nc32)[C@H](O)[C@@H]1O,IC50,[1],65 µM
same,selectivity ratio,[2],2
same,IC50,Trypanosoma cruzi,7.1 µM
same,IC50,Leishmania donovani,0.88 µM
same,selectivity ratio,[3],0.3
same,selectivity ratio,[4],< 0.1
C[C@H]1O[C@@H](n2cnc3c(N)nc(N=[N+]=[N-])nc32)[C@H](O)[C@@H]1O,IC50,[1],137 µM
same,selectivity ratio,[2],2
same,IC50,Trypanosoma cruzi,167 µM
same,IC50,Leishmania donovani,125 µM
same,selectivity ratio,[3],1
same,selectivity ratio,[4],1
CNc1nc(I)nc2c1ncn2[C@@H]1O[C@H](C)[C@@H](O)[C@H]1O,IC50,[1],49 µM
same,selectivity ratio,[2],0.7
same,IC50,Trypanosoma cruzi,126 µM
same,IC50,Leishmania donovani,199 µM
same,selectivity ratio,[3],1
same,selectivity ratio,[4],3
C[C@H]1O[C@@H](n2cnc3c(N)nc(N)nc32)[C@H](O)[C@@H]1O,IC50,[1],224 µM
same,selectivity ratio,[2],7
same,IC50,Trypanosoma cruzi,> 340 µM
same,IC50,Leishmania donovani,51 µM
same,selectivity ratio,[3],< 1
same,selectivity ratio,[4],2
CNc1nc(F)nc2c1ncn2[C@@H]1O[C@H](C)[C@@H](O)[C@H]1O,IC50,[1],194 µM
same,selectivity ratio,[2],0.7
same,IC50,Trypanosoma cruzi,20 µM
same,IC50,Leishmania donovani,> 353 µM
same,selectivity ratio,[3],12
same,selectivity ratio,[4],1
C[C@H]1O[C@@H](n2cnc3c(N)nc(I)nc32)[C@H](O)[C@@H]1O,IC50,[1],27 µM
same,selectivity ratio,[2],0.5
same,IC50,Trypanosoma cruzi,120 µM
same,IC50,Leishmania donovani,208 µM
same,selectivity ratio,[3],0.9
same,selectivity ratio,[4],4
C[C@H]1O[C@@H](n2cnc3c(N)nc(C#N)nc32)[C@H](O)[C@@H]1O,IC50,[1],79 µM
same,selectivity ratio,[2],2
same,IC50,Trypanosoma cruzi,144 µM
same,IC50,Leishmania donovani,100 µM
same,selectivity ratio,[3],1
same,selectivity ratio,[4],2
CC(=O)O[C@@H]1[C@H](OC(C)=O)[C@@H](C[S+](C)[O-])O[C@H]1n1cnc2c(N)nc(Cl)nc21 (stereo partly drawn),IC50,L6,168 µM
same,IC50,Plasmodium falciparum,106 µM
same,IC50,[1],106 µM
same,selectivity ratio,[2],< 0.7
same,selectivity ratio,[5],2
same,IC50,Trypanosoma cruzi,106 µM
same,IC50,Leishmania donovani,> 230 µM
same,selectivity ratio,[3],2
same,selectivity ratio,[4],2
CNc1ncnc2c1ncn2[C@@H]1O[C@H](CSC)[C@@H](O)[C@H]1O,IC50,[1],16 µM
same,selectivity ratio,[2],< 0.5
same,IC50,Trypanosoma cruzi,191 µM
same,IC50,Leishmania donovani,> 320 µM
same,selectivity ratio,[3],0.8
same,selectivity ratio,[4],10
CSC[C@H]1O[C@@H](n2cnc3c(/N=C/N(C)C)nc(F)nc32)[C@H](O)[C@@H]1O,IC50,[1],62 µM
same,selectivity ratio,[2],0.6
same,IC50,Trypanosoma cruzi,114 µM
same,IC50,Leishmania donovani,2.5 µM
same,selectivity ratio,[3],< 0.1
same,selectivity ratio,[4],< 0.1
CSC[C@H]1O[C@@H](n2cnc3c(N)nc(C#N)nc32)[C@H](O)[C@@H]1O,IC50,[1],66 µM
same,selectivity ratio,[2],0.6
same,IC50,Trypanosoma cruzi,150 µM
same,IC50,Leishmania donovani,266 µM
same,selectivity ratio,[3],1
same,selectivity ratio,[4],2
CC(=O)O[C@@H]1[C@H](OC(C)=O)[C@@H](CN=[N+]=[N-])O[C@H]1n1cnc2c(N)nc(F)nc21,IC50,L6,18 µM
same,IC50,Plasmodium falciparum,1.5 µM
same,IC50,[1],23 µM
same,selectivity ratio,[2],0.5
same,selectivity ratio,[5],12
same,IC50,Trypanosoma cruzi,39 µM
same,IC50,Leishmania donovani,33 µM
same,selectivity ratio,[3],0.5
same,selectivity ratio,[4],0.8
